Bounds are passed on as bounds.

Drawing on patent US20260138961A1, “MODULATORS OF MITOCHONDRIAL DNA REPLICATION” (Pretzel Therapeutics, Inc., priority 2022, published 2026), this text covers AC50 for five compounds.

The target in this experiment is T1, POLγ W748S + E1143G (Homo sapiens, UniProt P54098, E1143G/W748S).
T1 sequence (P54098 1-1239 W748S/E1143G): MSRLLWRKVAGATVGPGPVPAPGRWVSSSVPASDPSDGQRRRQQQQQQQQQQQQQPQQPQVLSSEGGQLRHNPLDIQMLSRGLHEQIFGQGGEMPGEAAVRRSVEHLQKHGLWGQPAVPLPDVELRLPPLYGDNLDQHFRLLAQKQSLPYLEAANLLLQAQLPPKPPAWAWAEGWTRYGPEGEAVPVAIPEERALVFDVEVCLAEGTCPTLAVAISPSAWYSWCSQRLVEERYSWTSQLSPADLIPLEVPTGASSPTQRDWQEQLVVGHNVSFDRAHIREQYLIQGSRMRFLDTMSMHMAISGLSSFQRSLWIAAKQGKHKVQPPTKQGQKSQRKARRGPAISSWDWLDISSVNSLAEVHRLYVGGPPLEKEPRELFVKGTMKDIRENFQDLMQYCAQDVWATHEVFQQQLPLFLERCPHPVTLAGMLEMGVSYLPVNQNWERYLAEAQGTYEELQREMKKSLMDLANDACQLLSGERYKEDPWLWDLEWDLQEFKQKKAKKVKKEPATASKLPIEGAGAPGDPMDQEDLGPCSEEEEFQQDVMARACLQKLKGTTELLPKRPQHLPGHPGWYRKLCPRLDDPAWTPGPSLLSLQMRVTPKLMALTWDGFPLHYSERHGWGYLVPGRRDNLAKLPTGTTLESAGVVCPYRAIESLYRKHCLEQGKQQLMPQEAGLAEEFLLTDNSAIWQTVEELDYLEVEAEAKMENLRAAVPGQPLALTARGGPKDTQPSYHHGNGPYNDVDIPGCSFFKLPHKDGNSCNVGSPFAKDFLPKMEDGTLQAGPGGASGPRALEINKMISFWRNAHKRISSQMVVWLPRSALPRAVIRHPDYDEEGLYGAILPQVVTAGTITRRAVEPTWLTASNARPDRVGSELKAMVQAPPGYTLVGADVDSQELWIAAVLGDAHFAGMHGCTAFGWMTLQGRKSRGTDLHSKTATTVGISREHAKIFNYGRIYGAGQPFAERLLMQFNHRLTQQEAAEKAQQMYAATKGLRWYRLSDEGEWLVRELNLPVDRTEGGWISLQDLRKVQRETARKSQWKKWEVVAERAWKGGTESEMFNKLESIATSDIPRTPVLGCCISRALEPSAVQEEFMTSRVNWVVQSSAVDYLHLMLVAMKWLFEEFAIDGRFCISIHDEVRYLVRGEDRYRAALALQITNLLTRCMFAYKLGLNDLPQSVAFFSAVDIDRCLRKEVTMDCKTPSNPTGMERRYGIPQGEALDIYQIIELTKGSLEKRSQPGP
T1 sequence (Q9UHN1 1-485 partner): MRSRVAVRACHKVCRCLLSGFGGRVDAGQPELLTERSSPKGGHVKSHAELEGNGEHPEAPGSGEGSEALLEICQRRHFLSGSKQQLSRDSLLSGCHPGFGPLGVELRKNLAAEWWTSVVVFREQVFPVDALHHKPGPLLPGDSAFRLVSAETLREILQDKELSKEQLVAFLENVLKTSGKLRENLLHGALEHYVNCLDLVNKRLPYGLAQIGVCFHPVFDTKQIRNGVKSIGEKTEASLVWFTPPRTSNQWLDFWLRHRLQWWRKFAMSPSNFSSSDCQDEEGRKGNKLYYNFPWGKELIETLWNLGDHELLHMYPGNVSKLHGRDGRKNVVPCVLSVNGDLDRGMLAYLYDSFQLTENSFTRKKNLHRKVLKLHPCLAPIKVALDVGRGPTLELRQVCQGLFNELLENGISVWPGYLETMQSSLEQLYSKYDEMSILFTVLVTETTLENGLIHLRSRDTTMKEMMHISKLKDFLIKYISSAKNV
The experiment can be described thus: DNA polymerization assay, W748S + E1143G mutant. It counts as biochemical. The conditions noted are these: stimulation of polymerase activity, primed M13mp18 ssDNA, 37° C. 2 hours. The method, then: DNA Polymerization Assay to Monitor Effects on Human Wildtype POLγ and Four Disease-Causing Mutant Variants of Human POLγ.
The ability of small molecules to stimulate the polymerase activity of POLγ was analyzed in a quantitative fluorescence SYBR Green I assay with fluorescence intensity (FI) readout.
In the presence of dNTPs, wild type human POLγ and mutant derivatives thereof were incubated with single-stranded, circular M13mp18 ssDNA hybridized to a short DNA oligonucleotide that functions as a primer for initiation of DNA synthesis. POLγ and mutant derivatives thereof will extend the primer and use the M13mp18 molecule as a template to synthesize long stretches of double-stranded DNA. SYBR Green I, which is a double-stranded DNA-binding dye, was used to quantify formation of double-stranded DNA in the reaction. When bound to double-stranded DNA, SYBR Green I fluorescence increases by up to 100-fold.
The assay was performed in the 384-well plate format. Upon addition of compounds, changes in double-stranded DNA synthesis activity can be monitored by following effects on fluorescent intensity.
The reactions also contained the accessory POLγB subunit, and the human mitochondrial single-stranded DNA binding protein (mtSSB).
The DNA template mixture used in the assay contained 0.5 nM primed M13 mp18 ssDNA, 400 nM mtSSB, 0.1 mM Tris-HCl (pH 8.0), 0.1 mM dNTP, 10 mM MgCl2, 0.1 mg/mL BSA, 1 mM TCEP solution, and 0.02% Triton X-100. The DNA template mixture for the wild type protein contained either 100 μM dNTP, 1 μM dNTP, or 0.1 μM dNTP, designated in Table 2 as 100 μM, 1 μM, and 0.1 μM, respectfully.
Microplates with compounds (0.1 μL in each well) to be tested in the assay were prepared from 10 mM compound stocks in 100% DMSO, and equal amounts of DMSO without any compound were added to positive and negative control wells.
The protein mixture was dispensed (5 μL into each well) into compound plates and incubated at 37° C. for 15 minutes. After incubation, 5 μL of the DNA template mixture was dispensed into each well. The plates were then incubated at 37° C. for 2 hours.
During incubation, a combined stop buffer and detection reagent solution was prepared. The buffer contained 25 mM EDTA (pH 8.0), 0.02% Triton X-100, and SYBR Green I [Invitrogen] diluted 10,000× (for fluorescent readout). EDTA will stop the enzymatic reaction by chelating magnesium ions.
Broadly, the AC50 is the concentration giving half of the maximal activity seen. In the case of `Cc1cc(S(=O)(=O)Nc2cc(F)cc(-c3nccs3)c2)c(C)cc1Cl` [Example 62, 4-chloro-N-(3-fluoro-5-(thiazol-2-yl)phenyl)-2,5-dimethylbenzenesulfonamide], the AC50 was above 100 µM.

As for `Cc1cc(S(=O)(=O)Nc2csc(-c3cnn(C)c3)n2)c(C)cc1Cl` [Example 183, 4-chloro-2,5-dimethyl-N-(2-(1-methyl-1H-pyrazol-4-yl)thiazol-4-yl)benzenesulfonamide], the AC50 worked out at 0.7 µM.

Turning to `Cc1cc(S(=O)(=O)Nc2cccc(-c3cc[nH]n3)c2)c(C)cc1Cl` [Example 68, N-(3-(1H-pyrazol-3-yl)phenyl)-4-chloro-2,5-dimethylbenzenesulfonamide], the AC50 was 2 µM.

Regarding `Cc1cc(S(=O)(=O)Nc2cccc(C(=O)N3CCC[C@H]3C(C)C)c2)c(C)cc1Cl` [Example 67, (S)-4-chloro-N-(3-(2-isopropylpyrrolidine-1-carbonyl)phenyl)-2,5-dimethylbenzenesulfonamide], the AC50 amounted to 21 µM.

Turning to `Cc1csc(-c2cccc(NS(=O)(=O)c3cc(C)c(Cl)cc3C)c2)n1` [Example 20, 4-chloro-2,5-dimethyl-N-(3-(4-methylthiazol-2-yl)phenyl)benzenesulfonamide], the AC50 is 2 µM.
